Experimental data taken from paper PMC6801822, “The Bactericidal Activity of Temporin Analogues Against Methicillin Resistant Staphylococcus aureus” (International Journal of Molecular Sciences, 2019).
≈ marks a conversion by molar mass, not a printed value. Read-outs that look alike come from different tables or passages of the source. Non-standard residues stand in square brackets, D forms with d. Residues, ends and D or L forms follow the SMILES beside them. AEEA = NCCOCCOCC(=O)O

Tests used:
[1] = tested on: S. aureus USA300 cytoplasmic membrane; experiment: Sytox green uptake (membrane permeabilization); type: cell-based, Staphylococcus aureus
Method: The USA300 strain was grown to mid-logarithmic phase at 37 °C, washed, and resuspended in 10 mM sodium phosphate buffer (pH 7.2) Bacterial cells were then incubated with 1 µM Sytox green for 15 min in the dark. After the addition of desired concentration of peptide conjugate (5–100 µg/mL), the time-dependent increases in fluorescence caused by the binding of the cationic dye to intracellular DNA were monitored (excitation at 485 nm and emission at 520 nm).

HaCaT cells = experiment: MTT cell viability test; type: cell-based, human
Method: Figure 3 The influence of DAL-PEG-DK5 on physiology of human keratinocytes. The potentially toxic effect of DAL-PEG-DK5 on HaCaT cells was evaluated using (A) MTT and (B) LDH assay. Cells were plated on 96-well plates and incubated overnight. Next, keratinocytes were treated with the peptide at different concentrations (5–200 μg/mL) for 3, 6, 18 h. Mean ± SD n = 2. ** p < 0.005 *** p < 0.001 **** p < 0.0001; 2way ANOVA. (C) Morphology of HaCaT cells was examined by confocal laser scanning microscopy. HaCaT cells were treated with CFS-conjugated DAL-PEG-DK5 (25 μg/mL) for 30 min at 37 °C and were stained with: DAPI and phalloidin for nuclear detection and actin cytoskeleton detection, respectively. Blue – DNA; red – f-actin; green-peptide conjugate; scale bar: 10 μm. Images present single slice of XY stacks.
The viability of HaCaT cells was examined by a 3-(4,5-dimethylthiazol-2-yl)-2,5-diphenyltetrazolium bromide (MTT, Sigma-Aldrich) reduction assay. In brief, cells were incubated with 10% (v/v) of a 5 mg/mL MTT solution for 1 to 2 h at 37 °C until purple precipitate is visible and acidified isopropanol was added followed by measuring of the absorbance at a wavelength of 570 nm.

[2] = tested on: S. aureus USA300 (MRSA) in suspension; experiment: Killing of MRSA in suspension, CFU count; type: cell-based, Staphylococcus aureus; conditions: MRSA 2 × 10^6 CFU/mL, peptide 50 μg/mL, 1 h, n = 2
S. aureus USA300 = conditions: MRSA; equal to 40 μg/mL
Method: (§1) Antimicrobial activity of peptides was analyzed through determination of MIC parameter according to the standard microdilution technique performed on 96-well plates. Mueller-Hinton broth (MHB, Sigma Aldrich, St. Louis, MO, USA) was used as the working medium for all bacterial strains. Briefly, inoculum was prepared from freshly grown cultures of bacteria being at their exponential phase of growth. Each well of 96-well plates containing 100 µL of serially diluted peptides in PBS at desired concentration was inoculated with 100 µL of 10^5 CFU/mL of bacterial suspension. Then plates were incubated overnight 37 °C and absorbance was read at 600 nm after 24 h. Wells without peptide were treated as the positive control, while uninoculated MHB was defined as the negative control. All measurements were run in triplicates.

S. aureus Newman = conditions: S. aureus Newman; broth microdilution, MHB, 37 °C, 24 h, triplicates
Method: as §1

S. aureus ATCC 25923 = conditions: S. aureus ATCC 25923; broth microdilution, MHB, 37 °C, 24 h, triplicates
Method: as §1

[3] = tested on: S. epidermidis ATCC 12228; conditions: S. epidermidis ATCC 12228; broth microdilution, MHB, 37 °C, 24 h, triplicates
Method: as §1

[4] = tested on: MRSA clinical isolate 56A1; conditions: MRSA clinical isolate 56A1 (skin); broth microdilution, MHB, 24 h
Method: as §1

[5] = tested on: MRSA clinical isolate 2492; conditions: MRSA clinical isolate 2492 (blood); broth microdilution, MHB, 24 h
Method: as §1

[6] = tested on: MRSA clinical isolate 2706; conditions: MRSA clinical isolate 2706 (blood); broth microdilution, MHB, 24 h
Method: as §1

[7] = tested on: MRSA clinical isolate 2872cv; conditions: MRSA clinical isolate 2872cv (blood); broth microdilution, MHB, 24 h
Method: as §1

[8] = tested on: MRSA clinical isolate 3417; conditions: MRSA clinical isolate 3417 (blood); broth microdilution, MHB, 24 h
Method: as §1

[9] = tested on: MRSA clinical isolate 4187; conditions: MRSA clinical isolate 4187 (blood); broth microdilution, MHB, 24 h
Method: as §1

[10] = tested on: MRSA clinical isolate 6674; conditions: MRSA clinical isolate 6674 (blood); broth microdilution, MHB, 24 h
Method: as §1

[11] = tested on: MRSA clinical isolate 7219; conditions: MRSA clinical isolate 7219 (blood); broth microdilution, MHB, 24 h
Method: as §1

[12] = tested on: MRSA clinical isolate 7501; conditions: MRSA clinical isolate 7501 (blood); broth microdilution, MHB, 24 h
Method: as §1

[13] = tested on: MRSA clinical isolate 7569; conditions: MRSA clinical isolate 7569 (blood); broth microdilution, MHB, 24 h
Method: as §1

[14] = tested on: MRSA clinical isolate 7718; conditions: MRSA clinical isolate 7718 (blood); broth microdilution, MHB, 24 h
Method: as §1

[15] = tested on: MRSA S. aureus strains (clinical isolates)
Method: as §1

[16] = cited from earlier work
Description: The efficient antibacterial activity of the DAL-PEG-DK5 conjugate may be due to the fact that it has a higher cationic charge than DK5 (+7 vs. +6, respectively). However, a α-helicity must also play an important role in this case. According to a common view about the mechanism underlying the antimicrobial activity of AMPs, formation of hel ...

S. aureus USA300 biofilm = experiment: Disruption of mature biofilm, crystal violet; conditions: mature biofilm (24 h) of USA300, peptide at 4 × MIC (160 μg/mL), n = 3
Method: USA300 strain was grown in 96-well plates at 37 °C for 24 h to form biofilm. Peptide was added at desired concentrations and plates were incubated for additional 24 h. […] Mean ± SD n = 3. ** p < 0.0151; one-way ANOVA.
Briefly, USA300 strain grown overnight was diluted 1:100 in TSB + 1% glucose and incubated in 96-well plates at 37 °C for 24 h. After removing media, wells were rinsed with PBS to remove planktonic bacteria before re-filling wells with fresh MHB. Peptide conjugates were added at desired concentrations and plates were incubated at 37 °C for 24 h. After incubation, wells were washed and biofilms were stained with 0.5% (w/v) crystal violet for 30 min. The dye was solubilized with ethanol (95%) and the OD of biofilms was measured.

In the case of `CC[C@H](C)[C@H](NC(=O)COCCOCCNC(=O)[C@H](CCCNC(=N)N)NC(=O)[C@H](CC(C)C)NC(=O)[C@H](Cc1ccccc1)NC(=O)CNC(=O)[C@@H](C)NC(=O)[C@@H](N)Cc1ccc(O)cc1)C(=O)N[C@@H](CCCCN)C(=O)N[C@@H](CCCCN)C(=O)N[C@H](C(=O)N[C@@H](CC(C)C)C(=O)N[C@@H](CO)C(=O)N[C@H](CCCCN)C(=O)N[C@H](C(=O)N[C@@H](CCCCN)C(=O)N[C@@H](CCCCN)C(=O)N[C@@H](CC(C)C)C(=O)N[C@@H](CC(C)C)C(N)=O)[C@@H](C)CC)[C@@H](C)CC` [DAL-PEG-DK5] (H-Y[dA]GFLR[AEEA]IKKILS[dK]IKKLL-NH2; N-terminus assumed), the “permeabilization of the cell membrane” value ([1]; 5 min post-treatment, peptide 10 μg) is reported as “marked permeabilization of the cell membrane”, the “concentration at which permeabilization of the bacterial membrane reached a plateau” value ([1]; USA300, 1 μM Sytox green, 10 mM sodium phosphate buffer pH 7.2, up to 60 min) is reported as 25 µg/mL and the “effect on metabolism of HaCaT cells (MTT)” value (HaCaT cells; 5 to 75 μg/mL, 3, 6 and 18 h, n = 2) is reported as “did not affect the metabolism of HaCaT cells”. For the same compound, the “effect on metabolically active HaCaT cells (MTT)” value (HaCaT cells; 100 or 200 μg/mL, 3, 6, 18 h) was “reduced the number of metabolically active cells in a concentration-dependent manner”, the “reduction in the number of live bacteria in suspension” value [2] was 74% and the MIC (S. aureus USA300) was 17.56 µM (≈ 40 µg/mL). It also gave an MIC (S. aureus Newman) of 140 µg/mL (≈ 61.5 µM), an MIC (S. aureus ATCC 25923) of 40 µg/mL (≈ 17.6 µM) and an MIC [3] of 60 µg/mL (≈ 26.4 µM). The MIC [4] was 40 µg/mL (≈ 17.6 µM), the MIC [5] was 40 µg/mL (≈ 17.6 µM) and the MIC [6] was 40 µg/mL (≈ 17.6 µM). It also gave an MIC [7] of 40 µg/mL (≈ 17.6 µM), an MIC [8] of 40 µg/mL (≈ 17.6 µM) and an MIC [9] of 40 µg/mL (≈ 17.6 µM). It also gave an MIC [10] of 40 µg/mL (≈ 17.6 µM), an MIC [11] of 30 µg/mL (≈ 13.2 µM) and an MIC [12] of 40 µg/mL (≈ 17.6 µM). The MIC [13] was 40 µg/mL (≈ 17.6 µM), the MIC [14] was 50 µg/mL (≈ 22 µM) and the “MIC against the majority of tested MRSA strains (90%)” value ([15]; conversion of 40 μg/mL) was 17.56 µM. The “MIC against the majority of tested MRSA strains (90%)” value ([15]; estimate of the discussion) was 40 µg/mL, the α-helical content ([16]; circular dichroism, 30 mM SDS in water) was 35% and the cationic charge [16] was “+7”. For the same compound, the “reduction of biofilm mass” value (S. aureus USA300 biofilm) was 50%.
